The results in this text go back to US20060148858A1, “1, 2-Azole derivatives with hypoglycemic and hypolipidemic activity” (priority 2002, published 2006).

In general, EC50 refers to the concentration that produces a half-maximal response. Lower therefore signals an effect from little substance. Broadly, the melting point is the temperature of the solid-liquid transition.

Read-outs that look alike come from different tables or passages of the source.

The test system of series [1] is KKAY mice. Put plainly: Hypoglycemic and hypolipidemic actions in mice (Test Example 1). The series is classed as in vivo. As to conditions: Mus musculus, po, 96 h, 0.005% in powdery diet, four days, non-treated group taken as 100%. Put shortly: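 KKAY mice (9 to 12 weeks old, 5 per group) were fed diet containing 0.005% test compound ad libitum for four days. Plasma glucose and triglycerides from orbital venous blood were measured enzymatically, reported as % decrease relative to untreated group (100%).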

Series [2] relates to KKAY mice. Put plainly: Plasma anti-arteriosclerosis index-enhancing action in mice (Test Example 2). The note with it: Mus musculus, po, 96 h, 0.005% in powdery diet, four days, percent increase of (HDL cholesterol/total cholesterol)x100, non-treatment group taken as 100%. The series is classed as in vivo. As for the experimental part:
Test compounds were mixed in a powdery diet (CE-2, Japan Clea) at the concentration of 0.005%, and freely given to KKAY mice (9 to 12 weeks old, 5 mice per group), a model of obese and non-insulin dependent diabetes (type 2 diabetes), for four days. During this period, water was given freely. Blood was sampled from orbital venous plexus and components in plasma separated from blood were determined. Total cholesterol levels were determined by using L type Wako Cholesterol (Wako Pure Chemical Industries, Ltd.). Precipitation reagent for HDL cholesterol (Wako Pure Chemical Industries, Ltd.) was added to a part of the plasma to precipitate non-HDL lipoprotein, and cholesterol (HDL cholesterol) in the resulting supernatant was determined. The plasma anti-arteriosclerosis index [(HDL cholesterol/total cholesterol)×100] was calculated by using these cholesterol levels.
In the Table, “Plasma anti-arteriosclerosis index-enhancing action (%)” represents the percent increase (%) of plasma anti-arteriosclerosis index in the treatment group, when the plasma anti-arteriosclerosis index in the non-treatment group is taken as 100%.

Series [3] addresses T1, PPARγ-RXRα heterodimer (Homo sapiens, UniProt P37231).
T1 construct: expressed in transfected cells; host or cells: CHO-K1
T1 sequence (P37231 1-477 isoform P37231-2): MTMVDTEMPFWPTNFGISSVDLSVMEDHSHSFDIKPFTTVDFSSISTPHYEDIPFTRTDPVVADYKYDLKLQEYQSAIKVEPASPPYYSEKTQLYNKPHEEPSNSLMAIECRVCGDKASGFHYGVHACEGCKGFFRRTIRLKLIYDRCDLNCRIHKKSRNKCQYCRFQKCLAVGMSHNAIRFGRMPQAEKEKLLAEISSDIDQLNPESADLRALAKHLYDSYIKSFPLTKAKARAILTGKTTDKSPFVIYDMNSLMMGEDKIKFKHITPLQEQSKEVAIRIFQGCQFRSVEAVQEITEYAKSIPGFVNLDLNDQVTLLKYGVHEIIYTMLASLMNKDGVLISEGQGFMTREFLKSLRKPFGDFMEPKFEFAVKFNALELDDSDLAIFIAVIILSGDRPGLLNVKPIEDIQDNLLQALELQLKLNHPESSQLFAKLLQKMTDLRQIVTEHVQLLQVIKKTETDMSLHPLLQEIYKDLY
T1 sequence (P19793 1-462 partner): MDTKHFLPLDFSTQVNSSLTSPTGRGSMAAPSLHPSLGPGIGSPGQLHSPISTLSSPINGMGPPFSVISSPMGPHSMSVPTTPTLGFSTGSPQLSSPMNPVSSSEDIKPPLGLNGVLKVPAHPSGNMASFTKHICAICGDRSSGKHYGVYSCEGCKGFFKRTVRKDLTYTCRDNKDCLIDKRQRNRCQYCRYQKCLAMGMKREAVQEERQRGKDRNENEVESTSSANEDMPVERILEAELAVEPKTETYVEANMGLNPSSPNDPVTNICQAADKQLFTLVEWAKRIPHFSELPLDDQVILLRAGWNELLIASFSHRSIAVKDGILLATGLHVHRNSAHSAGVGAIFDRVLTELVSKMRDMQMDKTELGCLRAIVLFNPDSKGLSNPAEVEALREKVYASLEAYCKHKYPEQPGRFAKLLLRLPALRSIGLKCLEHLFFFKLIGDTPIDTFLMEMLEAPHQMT
Put plainly: PPARγ-RXRα heterodimer ligand activity, luciferase reporter in PPARγ:RXRα:4ERPP/CHO-K1 cells (Test Example 3). The series is classed as cell-based. The note with it: 18-48 hours, concentration for 50% of the maximum fold induction. Summed up: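 Stable CHO-K1 line co-expressing hPPARγ/RXR with 4ERPP-TK luciferase reporter, 2×10^4 cells per well, treated 18-48 h at 37° C. in HAM F12 with 0.1% fatty acid-free BSA. Luciferase fold induction versus untreated taken as 1; EC50 is concentration giving 50% of maximal fold induction.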
In general terms: In a reporter assay the amount or activity of a reporter protein is the signal.

The mark [4] stands for this setting: rate of decrease in blood glucose level, read-out: Hypoglycemic action (%).
The mark [5] stands for this setting: rate of decrease in blood triglyceride level, read-out: Hypolipidemic action (%).

In turn, `CCOc1nn(-c2ccc(C(F)(F)F)cn2)cc1CCCOc1cccc(OC(C)(C)C(=O)O)c1` [Example 29, 2-[3-(3-{3-ethoxy-1-[5-(trifluoromethyl)-2-pyridyl]-1H-pyrazol-4-yl}propoxy)phenoxy]-2-methylpropionic acid] yielded a melting point of 120 to 121 °C. The inhibition in vivo at 0.005 % in diet in series [1] (setting [4]) came to 46%. For the same molecule, the inhibition in vivo at 0.005 % in diet in series [1] (setting [5]) is 65%. Moreover, the change in vivo at 0.005 % in diet in series [2] is 23%. In addition, the EC50 in series [3] stood at 160 nM.

Molecule `CC(C)c1nn(-c2ccc(C(F)(F)F)cn2)cc1CCCOc1cccc(OC(C)(C)C(=O)O)c1` [Example 28, 2-[3-{3-(3-isopropyl-1-[5-(trifluoromethyl)-2-pyridyl]-1H-pyrazol-4-yl}propoxy)phenoxy]-2-methylpropionic acid] came in with a melting point of 101 to 102 °C. In addition, the inhibition in vivo at 0.005 % in diet in series [1] (setting [4]) stood at 42%. The inhibition in vivo at 0.005 % in diet in series [1] (setting [5]) stood at 56%. Further, the change in vivo at 0.005 % in diet in series [2] amounted to 18%. In addition, in series [3], the 50% effective concentration (EC50) was found to be 35 nM.

Take `CCCc1nn(-c2ccc(C(F)(F)F)cn2)cc1CCCOc1c(CC(=O)O)cccc1OC` [Example 259, [3-methoxy-2-(3-{3-propyl-1-[5-(trifluoromethyl)-2-pyridyl]-1H-pyrazol-4-yl}propoxy)phenyl]acetic acid]: the melting point was 122 to 123 °C. Moreover, the inhibition in vivo at 0.005 % in diet in series [1] (setting [4]) came to 34%. Further, the inhibition in vivo at 0.005 % in diet in series [1] (setting [5]) worked out at 70%. Also, the change in vivo at 0.005 % in diet in series [2] came to 25%. The molecule also showed an EC50 in series [3] of 76 nM.
